“Also recorded” adds a separate entry of the source.
Key:
[1] = tested on: experimental murine model of steatohepatitis (NASH); experiment: Murine model of steatohepatitis (NASH): methionine- and choline-deficient diet (MCD), SerpinB3-transgenic and wild-type (C57BL/7) mice; type: in vivo; conditions: for liver histology: steatosis and lobular damage / relative liver weight (liver weight/body weight): MCD diet 8 weeks, i.p. daily from Week 4, PPA 0.01 μg/g or Curcumin 0.2 mg/g; for liver histology: steatosis and lobular damage: especially transgenic mice liver; for relative liver weight (liver weight/body weight): wild-type and SerpinB3-transgenic mice, more evident in transgenic mice
Method: PPA effect was also assessed in a murine model of fibrosing disease, in particular an experimental model of non-alcoholic steatohepatitis, which is a condition in which a fatty liver, associated with inflammation and fibrosis production, causes, among other things, a high risk of neoplastic transformation. In the study, both SerpinB3-transgenic mice and the respective wild-type (C57BL/7) strain were used, fed for 8 weeks with a methionine- and choline-deficient diet (MCD), which constitutes a recognized steatohepatitis induction model, or with a normal diet. MCD diet-treated transgenic and control mice groups starting from Week 4, were administered daily by intraperitoneal route, PPA (0.01 μg/g), or Curcumin (a molecule with a recognized anti-inflammatory and anti-fibrotic activity in animal models) as control, at standard concentrations (0.2 mg/g).
To assess PPA effect as SerpinB3 inhibitor in an experimental murine model of steatohepatitis (NASH), a condition with a high risk of hepatic tumor, both SerpinB3-transgenic mice and the respective wild-type (C57BL/7) strain were used.
The animals were fed for 8 weeks with a methionine- and choline-deficient diet (MCD), a recognized steatohepatitis induction model, or with a normal diet. MCD diet-treated transgenic and control mice groups, starting from Week 4, were administered daily, by intraperitoneal route, PPA (0.01 μg/g), or Curcumin (a molecule with a recognized anti-inflammatory and anti-fibrotic activity in animal models) as control, at the standard concentration of 0.2 mg/g. […] This effect was more evident in transgenic mice.

[2] = tested on: SerpinB3; experiment: SerpinB3 mRNA expression in HT29 tumor cells (real-time PCR); type: cell-based; conditions: 24 hours
Method: HT29 tumor cells, constitutively expressing SerpinB3, were used, […] cells/well were seeded into 6-well plates and kept 24 hours prior to treatment in modified McCoy medium (Sigma-Aldrich, Milan, Italy) supplemented with heat-inactivated 10% fetal calf serum, (Sigma-Aldrich, Milan, Italy), 100 U/ mL penicillin, […] streptomycin, and 20 mM L-glutamine (Sigma-Aldrich, Milan, Italy),
Then, PPA (1′-piperidinepropionic acid) was added, at a concentration of 100 ng/ml alone or in combination with recombinant SerpinB3 (SB3) at a concentration of 200 ng/ml, whereas the medium alone (untreated HT-29 cells) was added into control wells. After 24 hours of treatment cells were harvested, and extraction of total cell RNA and reverse transcription were performed according to standard protocols. mRNA SerpinB3 levels were measured by real-time PCR (sense: 5′-GCAAATGCTCCAGAAGAAAG-3′; reverse 5′-CGA GGC AAA ATGAAAA AGA TG-3′) and the results were normalized on the basis of data obtained with housekeeping HPRT1 (sense 5′-TCAGGCAGTATAATCC AAAGATGGT-3′; reverse 5′-[…] -3′).

[3] = tested on: primary human monocytes; experiment: Release of soluble CD163 (sCD163) by primary human monocytes; type: cell-based
Method: PPA effect was evaluated in this context as well, where primary monocytes incubated 1 week with SerpinB3 at a concentration of 200 ng/ml alone, or in association with PPA (100 ng/ml) were used. Monocytes kept in culture medium and monocytes treated with PPA alone at the same concentrations were used as controls.

[4] = SerpinB3 transgenic mice, MCD diet, PPA 0.01 μg/g i.p. daily from Week 4

Molecule	liver histology: steatosis and lobular damage [1]	liver histology: steatosis and lobular damage ([1]; listed as curcumin)	relative liver weight (liver weight/body weight) ([1]; listed as curcumin)	reduction of the inflammatory response ([1]; MCD diet, Curcumin 0.2 mg/g i.p. daily from Week 4)	SerpinB3 expression (mRNA) after induction from exogenous SerpinB3 ([2]; PPA 100 ng/ml + recombinant SerpinB3 200 ng/ml)	SerpinB3 expression (mRNA), constitutive ([2]; PPA 100 ng/ml alone, normalized to HPRT1)	relative liver weight (liver weight/body weight) [1]	IL-1 beta gene expression [1, 4]	Mcp1 gene expression [1, 4]	TNF-alpha gene expression [1, 4]	alpha-SMA (marker of stellate cell activation) gene expression ([1]; both strains (wild-type and SerpinB3-transgenic), MCD diet, PPA 0.01 μg/g i.p. daily from Week 4)	sCD163 release in the culture medium after stimulation with SerpinB3 ([3]; primary monocytes, 1 week, SerpinB3 200 ng/ml + PPA 100 ng/ml)	spontaneous release of sCD163 ([3]; primary monocytes, PPA alone 100 ng/ml, compared with untreated monocytes)	SerpinB3 expression (mRNA) after treatment with exogenous SerpinB3 ([2]; recombinant SerpinB3 200 ng/ml)	release of sCD163 induced by SerpinB3 ([3]; primary human monocytes, SerpinB3 200 ng/ml, preliminary results)
COc1cc(/C=C/C(=O)CC(=O)/C=C/c2ccc(O)c(OC)c2)ccc1O [Curcumin, reference compound]	reduced	more marked steatosis, associated with a higher relative liver weight, compared to mice MCD diet-fed, but treated with PPA or curcumin	higher relative liver weight, compared to mice MCD diet-fed, but treated with PPA or curcumin	obtained also with curcumin											
O=C(O)CCN1CCCCC1 [PPA, 1-piperidinepropionic acid]	reduced; also recorded: more marked steatosis, associated with a higher relative liver weight, compared to mice MCD diet-fed, but treated with PPA or curcumin				significantly reduce	significantly reduce; also recorded: inhibit SerpinB3 synthesis	reduced; also recorded: higher relative liver weight, compared to mice MCD diet-fed, but treated with PPA or curcumin; also recorded: higher relative liver weight (liver weight/body weight) after MCD diet, compared to mice treated with the same diet	significant decrease	significant decrease	increase was non-evident; also recorded: increase proved not evident	marked reduction	markedly reduced	reduces		
SerpinB3: recombinant SerpinB3 (Squamous Cell Carcinoma Antigen, SCCA1), a serine protease inhibitor, added as exogenous stimulus (protein, UniProt P29508 1-390, looked up) Serpin B3: MNSLSEANTKFMFDLFQQFRKSKENNIFYSPISITSALGMVLLGAKDNTAQQIKKVLHFDQVTENTTGKAATYHVDRSGNVHHQFQKLLTEFNKSTDAYELKIANKLFGEKTYLFLQEYLDAIKKFYQTSVESVDFANAPEESRKKINSWVESQTNEKIKNLIPEGNIGSNTTLVLVNAIYFKGQWEKKFNKEDTKEEKFWPNKNTYKSIQMMRQYTSFHFASLEDVQAKVLEIPYKGKDLSMIVLLPNEIDGLQKLEEKLTAEKLMEWTSLQNMRETRVDLHLPRFKVEESYDLKDTLRTMGMVDIFNGDADLSGMTGSRGLVLSGVLHKAFVEVTEEGAEAAAATAVVGFGSSPTSTNEEFHCNHPFLFFIRQNKTNSILFYGRFSSP														increased	induces the release

Reference: US11628163B2, “1-piperidinepropionic acid for treating a fibrosing disease” (UNIVERSITÀ DEGLI STUDI DI PADOVA, priority 2017, dated 2023)
